One data set relates to Aspergillus niger. The data set is described as follows: Mycelia Inhibition. To be noted: 25° C., 24 hours. The format is cell-based. How it is done:
(§1) The compounds of the present invention were evaluated for fungicidal effectiveness by means of a mycelial inhibition test. This test is designed to measure the fungitoxic acitvity of fungicidal chemicals in terms of their degree of inhibition of mycelium growth. Each compound to be tested was dissolved in acetone to 500 ppm concentration. Paper strips were innoculated with the particular mycelium growth by covering the paper with a potato dextrose broth culture of mycelial suspension. The innoculated papers were then placed on potato dextrose agar plates and sprayed by means of a micro sprayer with the fungicidal solution. The treated paper strips were incubated at 25° C. and data is taken after 24 hours. Fungicidal activities are measured by a zone of inhibited mycelial growth from the center of the paper strip. The effectiveness of the compounds tested for fungicidal activity is reported in Table VI in terms of the microgram/cm^2 for 99% control of the fungus.

The next data set deals with Fusarium moniloforma. The data set is described as follows: Mycelia Inhibition. The format is cell-based. To be noted: 25° C., 24 hours. How it is done:
as §1

The next data set has as its system Rhizoctonia solani. The data set is described as follows: Mycelia Inhibition. The format is cell-based. To be noted: 25° C., 24 hours. The method, then: as §1
Another data set has as its system Erysiphe polygoni. The data set is described as follows: Powdery Mildew control on bean seedlings. The format is in vivo. To be noted: 250-ppm spray, about 10 days. From the text: The powdery mildew test was made using bean seedlings (var. Bountiful) with well-developed primary leaves. The pathogen was Erysiphe polygoni. The bean seedlings were sprayed with a 250-ppm solution of the test compound in an acetone-water mixture containing a nonionic emulsifer. The treated plants were inoculated one day after spray application of the test compound with the pathogen. […] The rate of infection on the leaves was made after about 10 days. The percent disease control provided by a given test compound was based on the disease reduction relative to untreated check plants.

Data set [1] deals with Crabgrass (Digitaria sanguinalis). The data set is described as follows: Post-emergent herbicidal test. In kind it is in vivo. To be noted: post-emergence, 504 h, 33 mcg/cm^2, 3 weeks, scale 0 (no phytotoxicity) to 100 (complete kill), read-out: Herbicidal Effectiveness (C). The method, then: (§2) Post-emergent herbicidal tests with representative compounds of this invention were made using the following method.
(§3) An acetone solution of the test compound was prepared by mixing 750 mg of the compound, 220 mg of a nonionic surfactant and 25 ml of acetone. This solution was added to approximately 125 ml of water containing 156 mg of surfactant.
(§4) This test solution was uniformly sprayed on 2 similar pots of 24-day-old plants (approximately 15 to 25 plants per pot) at a dose of 33 mcg/cm^2. After the plants had dried, they were placed in a greenhouse and then watered intermittently at their bases, as needed. The plants were observed periodically for phytotoxic effects and physiological and morphological responses to the treatment. After 3 weeks, the herbicidal effectiveness of the compound was rated based on these observations. A 0-to-100 scale was used, 0 representing no phytotoxicity and 100 representing complete kill.

Data set [2] concerns Mustard (Brassica arvensis). The data set is described as follows: Post-emergent herbicidal test. The format is in vivo. To be noted: post-emergence, 504 h, 33 mcg/cm^2, 3 weeks, scale 0 (no phytotoxicity) to 100 (complete kill), read-out: Herbicidal Effectiveness (L). The method, then: as §2, §3, §4
A further data set has as its system Wild Oats (Avena fatua). The data set is described as follows: Post-emergent herbicidal test. The format is in vivo. To be noted: post-emergence, 504 h, 33 mcg/cm^2, 3 weeks, scale 0 (no phytotoxicity) to 100 (complete kill), read-out: Herbicidal Effectiveness (O). The method, then: as §2, §3, §4
Data set [3] deals with Lambsquarter (Chenopodium album). The data set is described as follows: Post-emergent herbicidal test. In kind it is in vivo. To be noted: post-emergence, 504 h, 33 mcg/cm^2, 3 weeks, scale 0 (no phytotoxicity) to 100 (complete kill), read-out: Herbicidal Effectiveness (P). How it is done:
as §2, §3, §4

Data set [4] deals with Watergrass (Echinochloa Crusgalli). The data set is described as follows: Post-emergent herbicidal test. In kind it is in vivo. To be noted: Echinochloa crus-galli, post-emergence, 504 h, 33 mcg/cm^2, 3 weeks, scale 0 (no phytotoxicity) to 100 (complete kill), read-out: Herbicidal Effectiveness (W). How it is done: as §2, §3, §4
Data set [5] relates to Pigweed (Amaranthus retroflexus). The data set is described as follows: Post-emergent herbicidal test. The format is in vivo. To be noted: post-emergence, 504 h, 33 mcg/cm^2, 3 weeks, scale 0 (no phytotoxicity) to 100 (complete kill), read-out: Herbicidal Effectiveness. How it is done: as §2, §3, §4
Data set [6] has as its system two spotted-mites (Tetramuchus urticae). The data set is described as follows: Mite control test, adult mites. To be noted: 40-ppm leaf dip, adult mortality one day after treatment; 1440 min. The format is in vivo. The method, then:
(§5) Compounds of the invention were tested for the control mites and mite eggs by the following procedure. Pinto bean leaves were invested with two spotted-mites (Tetramuchus urticae). The mites were then allowed to lay eggs on the leaves. After 48 hours, the leaves were dipped into a water/acetone solution containing a small amount of a non-ionic surfactant and 40-ppm of the test compound. The treated leaves were then maintained at 85° F. One day after treatment, the mortality of adult mites was determined, and 7 days after treatment, the egg mortality (non-hatching eggs) was determined.

The subject of data set [7] is Botrytis cinerea. The data set is described as follows: Botrytis cinerea control on detached horsebean leaves. The format is in vivo. To be noted: 40-ppm solution, dipped horsebean leaves, 3 to 5 days, 23.5° C. How it is done:
The leaves were dipped into a 40-ppm solution of the test compound in acetone and water containing a small amount of a nonionic emulsifier, then taken out and placed in a petri plate lined with two pieces of filter paper. The leaves were allowed to dry while the filter paper was kept moist by adding water as required. The treated leaves were then inoculated with the spores of Botrytis cinerea fungus grown on potato dextrose agar. The plate was covered after inoculation and kept at 23.5° C. The filter-paper lining of the plate was kept saturated with water throughout the test. The rate of disease incidence was determined in 3 to 5 days, when the disease symptoms were fully evident on non-treated check leaves. The percentage disease control provided by the test compound was calculated as the percentage disease reduction based on the non-treated check leaves.

In data set [8] the test system is mite eggs (Tetramuchus urticae). The data set is described as follows: Mite control test, mite eggs. In kind it is in vivo. To be noted: 40-ppm leaf dip, egg mortality (non-hatching eggs) 7 days after treatment. How it is done:
as §5

For data set [9], the system named is Botrytis cinerea. The data set is described as follows: Mycelia Inhibition. The format is cell-based. To be noted: 25° C., 24 hours. The method, then:
as §1

The subject of the next data set is Alternaria solani. The data set is described as follows: Tomato Early Blight control. The format is in vivo. To be noted: 250-ppm spray, tomato seedlings, inoculated 1 day later. How it is done: Compounds of the invention were tested for the control of the Tomato Early Blight organism, Alternaria solani conidia. […] The tomato plans were sprayed with a 250-ppm solution of the test compound in an acetone-and-water solution containing a small amount of a non-ionic emulsifier. […] Percent disease control was based on the percent disease development on untreated check plants.

The subject of the next data set is Phytophthora infestans. The data set is described as follows: whole plant or invertebrate. In kind it is in vivo. To be noted: in Solanum lycopersicum, 168 h, read-out: Tomato Late Blight, % Control.

2 compounds from patent US4119722A, “Method for control of fungi using 4-halo-5-aryl-1,2,3,-dithiazoles” (Chevron Research Company, priority 1977, dated 1978) can be followed below.

For `Cc1cc(Cl)ccc1N=c1ssnc1Cl` [Compound 4, 4-chloro-5-(2-methyl-4-chlorophenylimino)-1,2,3-dithiazole], the “Mycelia Inhibition, for 99% control (A)” value in the data set on Aspergillus niger is on record as over 1.7 micrograms/cm^2. In addition, the “Mycelia Inhibition, for 99% control (F)” value in the data set with Fusarium moniloforma is on record as over 1.7 micrograms/cm^2. Also, in the data set on Rhizoctonia solani, the “Mycelia Inhibition, for 99% control (R)” value was 0.63 micrograms/cm^2. The “Powdery Mildew % Control” value with Erysiphe polygoni is recorded as 100%. For the same compound, the pest or weed control at 33 µg/cm2 in data set [1] was 20%; in data set [2], 70%; in the data set on Wild Oats (Avena fatua), 20%; in data set [3] it was 85%; in data set [4], 30%; in data set [5], 70%. Moreover, the “Mite Control, %” value in [6] is 94%. For the same compound, the “percentage disease control (Botrytis cinerea)” value in the data set with Botrytis cinerea [7] is 92%. Further, the “Mite Eggs Control, %” value in data set [8] stood at 100%.
`Cc1c(Cl)cccc1N=c1ssnc1Cl` [Compound 21]: the “Mycelia Inhibition, for 99% control (B)” value in the data set with Botrytis cinerea [9] is listed as 1.3 micrograms/cm^2. Also, the “Mycelia Inhibition, for 99% control (A)” value in the data set with Aspergillus niger was over 1.7 micrograms/cm^2. In addition, the “Mycelia Inhibition, for 99% control (F)” value with Fusarium moniloforma was over 1.7 micrograms/cm^2. The “Mycelia Inhibition, for 99% control (R)” value with Rhizoctonia solani amounted to 1.1 micrograms/cm^2. In the data set with Alternaria solani, the “Tomato Early Blight, % Control” value worked out at 44%. For the same compound, the “Powdery Mildew % Control” value with Erysiphe polygoni was 100%. The pest or weed control at 33 µg/cm2 in data set [1] was found to be 0%; in data set [2], 45%; with Wild Oats (Avena fatua), 0%; in data set [3] it was 20%; in [4], 15%; in [5] it was 50%. Further, the pest or weed control at 250 µg/mL with Phytophthora infestans was 63%. In data set [6], the “Mite Control, %” value is 90%. Also, the “Mite Eggs Control, %” value in data set [8] turned out to be 99%.
